Results reported in US20230036041A1, “SORTILIN BINDING CONJUGATE COMPOUNDS, COMPOSITIONS AND USES THEREOF FOR TREATING CANCER” (THERATECHNOLOGIES INC., priority 2019, published 2023).
Entries after “also recorded” stand apart in the source; their conditions may differ. Like-named read-outs stand apart in the source and are kept apart here. Non-standard residues stand in square brackets, D forms with d. Residues, ends and D or L forms follow the SMILES beside them. *: point of attachment. X1 = CC(=O)O[C@@]12CO[C@@H]1C[C@H](O)[C@@]1(C)C(=O)[C@H](O)C3=C(C)[C@@H](OC(=O)[C@H](OC(=O)CCC(=O)*)[C@@H](NC(=O)OC(C)(C)C)c4ccccc4)C[C@@](O)([C@@H](OC(=O)c4ccccc4)[C@H]21)C3(C)C; Nle = CCCC[C@H](N)C(=O)O

Experiments:
[1] = in vitro stability in mouse plasma; assay type: in vitro ADME; details: 37° C.
Method: Additional testing was conducted to study the stability of formulated TH1902 in mouse plasma. TH1902 was either solubilized in […] or formulated with solubilizing agents (Formulation: DMSO/Solutol™ HS15/Tween™-80/EtOH/Sol. Ac. Ac./D5W/water in the following V/V proportion 5/6/2.5/0.75/0.005/69/16.75). TH1902 was incubated in mouse plasma at 37° C. for the indicated times. Plasma proteins were precipitated by the addition of 4 volumes of ACN (87%) with formic acid (0.125%) followed by centrifugation (10,000 rpm×5 min). Supernatants were injected in UPLC/MS. Peak area corresponding to TH1902 was calculated and compared to time 0.

SK-MEL-28 xenografts = assay type: in vivo, mice
Method: (§1) Briefly, stock solution of formulated TH1902 was prepared as sterile aliquots of 10 mg/mL frozen liquid solutions (see below). On the day of animal dosing, frozen aliquots were thawed 30 minutes at room temperature then diluted with sterile 5% dextrose injection, USP (D5W) to the desired concentration for injection (i.e. typically 5.4 or 1.35 mg/mL).
(§2) TH1902 frozen stock solution were prepared as follow: • 1. Make the TH1902 diluent solution (Diluent) the day before the solubilization. Diluent: 10% Tween™ 80 in D5W USP (w/v) with 0.04% of formic acid (v/v), ˜pH 2.9. Leave solution at room temperature until TH1902 solubilization (next day). • 2. Weigh 60 mg of TH1902 API into a 14 ml glass vial with screw caps. Adjust TH1902 weights to reflect TH1902 purity according to the certificate of analysis. • 3. Add 90% of diluent solution needed to prepare the TH1902 10 mg/ml stock solution. • 4. Swirl the content of the bottle to form opaque mixture and place a stir bar. • 5. Place bottle in the heating apparatus (glass water bath and mount for holding vial with thermometer and stir bar on a digital heating plate). Begin mixing the content of the bottle. • 6. Gradually increase the temperature of water bath in increments of 5° C. every 30 minutes until mixture turns clear (temperature ramping up to 45° C. over a period of time of about 165 to 180 minutes). […] Transfer the formulation to a graduated glass cylinder and bring to final calculated volume with diluent solution. • 9. […] Perform UPLC analysis against a TH1902 standard curve for quantification and purity assessment. • 11. […]
Two of the sortilin-expressing melanoma cancer cell lines (SK-MEL-28 and B16-F10) were used to monitor whether TH1902 impeded the growth of the cells when administered at 35 mg/kg/week, versus unconjugated docetaxel at 15 mg/kg/week. This is the maximum tolerated dose (MTD) for free docetaxel, and the TH1902 formulation contains the equivalent quantity of docetaxel within this peptide drug conjugate. […] This difference was quantified when the control group reached the tumor volume endpoint at day-42. […]

[2] = test system: PANC-1 subcutaneous tumor xenografts; assay: pancreatic cancer xenograft model (PANC-1); assay type: in vivo, mice; details: vs vehicle
Method: as §1
as §2, with “6.” for “6. Gradually increase the temperature of water bath in increments of 5° C. every 30 minutes until mixture turns clear (temperature ramping up to 45° C. over a period of time of about 165 to 180 minutes).”

[3] = test system: MDA-MB-231/Luc (triple-negative breast cancer) xenografts; assay: tumor growth inhibition, MDA-MB-231/Luc xenografts in nude mice, TH1902 formulations (Examples 3A, 3B); assay type: in vivo
Method: TH1902 and docetaxel (supplied by Wonda Science Inc.) were used. […] Both treatments were administered intravenously, on a per week basis over 6 weeks.
8 different formulations comprising TH1902 were tested.
These are derived from a triple-negative breast cancer (TNBC) and they stably express firefly luciferase. […] Cell counts and cell viability were assessed with a BioRad TC20™ automated cell counter.
60 young adult, female, homozygous nude mice (Crl:CD1-Foxn1^nu), obtained from Charles River Canada Inc. (St-Constant, Quebec) were used in this study. Healthy mice were selected based on normal veterinary examination.
Tumor growth was monitored, and mice were randomly assigned to groups the vehicle group, docetaxel group or one of the 8 TH1902 formulations group (6 mice per group) for further treatment when tumor volumes reached 40-140 mm^3 or after 2-3 days of significant increase. Experimental procedures
Mice were first anesthetized with isoflurane and oxygen. Two-dimensional measurements were taken with electronic calipers during the study and tumor volume was calculated using the following formula: tumor volume (mm^3)=0.52*a*b^2, where 0.52 is a constant to calculate the volume of an ellipsoid (π/6), where “a” is the longest diameter and “b” is the shortest diameter[3]. […]
All mice were observed daily for changes in appearance and behavior, and events recorded when appropriate. […]

| Compound | half-life ([1]; TH1902 formulated with solubilizing agents (DMSO/Solutol HS15/Tween-80/EtOH/Sol. Ac. Ac./D5W/water 5/6/2.5/0.75/0.005/69/16.75)) | half-life ([1]; TH1902 solubilized in DMSO) | body weight of mice (SK-MEL-28 xenografts; TH1902 35 mg/kg/week, docetaxel 15 mg/kg/week) | tumor growth / tumor size, low dose ([2]; docetaxel 3.75 mg/kg, TH1902 8.75 mg/kg, day 21 and extended) | tumor growth / tumor size, high dose ([2]; docetaxel 15 mg/kg (MTD), TH1902 35 mg/kg, day 21) | tumor growth / tumor volumes (SK-MEL-28 xenografts; TH1902 35 mg/kg/week, docetaxel 15 mg/kg/week, endpoint day-42, FIG. 27) | body weight of mice (SK-MEL-28 xenografts; mouse, in vivo) | tumor volumes / tumor growth up to Day 24 ([3]; 8.75 mg/kg/week TH1902, docetaxel at ¼ MTD, vs vehicle, FIG. 16) | ΔT/ΔC (%) (at endpoint, Day-24) ([3]; 8.75 mg/kg/week of TH1902 (docetaxel 3.75 mg/kg)) |
| --- | --- | --- | --- | --- | --- | --- | --- | --- | --- |
| CCCC[C@H](NC(=O)[C@H](CC(N)=O)NC(=O)[C@H](CCCNC(=N)N)NC(=O)[C@@H](NC(=O)CNC(=O)[C@H](C)NC(=O)[C@H](CCCCNC(=O)CCC(=O)O[C@@H](C(=O)O[C@H]1C[C@@]2(O)[C@@H](OC(=O)c3ccccc3)[C@@H]3[C@]4(OC(C)=O)CO[C@@H]4C[C@H](O)[C@@]3(C)C(=O)[C@H](O)C(=C1C)C2(C)C)[C@@H](NC(=O)OC(C)(C)C)c1ccccc1)NC(=O)[C@H](C)NC(=O)[C@H](CCCNC(=N)N)NC(=O)[C@@H](NC(=O)CNC(C)=O)C(C)C)C(C)C)C(=O)N[C@@H](Cc1ccccc1)C(=O)N[C@@H](CCCCNC(=O)CCC(=O)O[C@@H](C(=O)O[C@H]1C[C@@]2(O)[C@@H](OC(=O)c3ccccc3)[C@@H]3[C@]4(OC(C)=O)CO[C@@H]4C[C@H](O)[C@@]3(C)C(=O)[C@H](O)C(=C1C)C2(C)C)[C@@H](NC(=O)OC(C)(C)C)c1ccccc1)C(=O)N[C@@H](CO)C(=O)N[C@@H](CCC(=O)O)C(=O)N[C@@H](CO)C(=O)N[C@@H](Cc1ccc(O)cc1)C(=O)O [TH1902, Acetyl-GVRAK(docetaxel)AGVRN(Nle)FK(docetaxel)SESY] (Ac-GVRAK(X1)AGVRN[Nle]FK(X1)SESY-OH) | 30 h | 5 h | remained within −20% endpoint limit |  |  |  |  |  |  |
| CC(=O)O[C@@]12CO[C@@H]1C[C@H](O)[C@@]1(C)C(=O)[C@H](O)C3=C(C)[C@@H](OC(=O)[C@H](O)[C@@H](NC(=O)OC(C)(C)C)c4ccccc4)C[C@@](O)([C@@H](OC(=O)c4ccccc4)[C@H]21)C3(C)C [docetaxel] |  |  |  | very similar in size to those treated with vehicle; also recorded: indistinguishable | Decreased tumor growth; also recorded: significant decreases in tumor size | inhibited tumor growth | remained within −20% endpoint limit | grow slightly faster than those in the control animals | 143% |
